# Data as given in ChEMBL document CHEMBL2417492, “Structural studies of β-hairpin peptidomimetic antibiotics that target LptD in Pseudomonas sp” (2013).
# System: Pseudomonas aeruginosa
# Experiment: Antibacterial activity against Pseudomonas aeruginosa ATCC 27853 assessed as growth inhibition
# Assay type: functional
row,MIC [µg/mL],Compound
1,0.05,CC(C)C[C@@H]1NC(=O)[C@H](Cc2c[nH]c3ccccc23)NC(=O)[C@H]([C@@H](C)O)NC(=O)[C@@H]2CCCN2C(=O)[C@H]2CCCN2C(=O)[C@H](CCCCN)NC(=O)[C@H](C)NC(=O)[C@H](CCCCN)NC(=O)[C@H](CCCCN)NC(=O)[C@H](Cc2c[nH]c3ccccc23)NC(=O)[C@H](CCCNC(=N)N)NC(=O)[C@H](CCCNC(=N)N)NC(=O)[C@H](CCCCN)NC(=O)[C@H](C)NC1=O
2,0.01,CC(C)C[C@@H]1NC(=O)[C@H](Cc2c[nH]c3ccccc23)NC(=O)[C@H]([C@@H](C)O)NC(=O)[C@@H]2CCCN2C(=O)[C@H]2CCCN2C(=O)[C@H](CCCCN)NC(=O)[C@H](C)NC(=O)[C@H](CCCCN)NC(=O)[C@H](CCCCN)NC(=O)[C@H](Cc2c[nH]c3ccccc23)NC(=O)[C@H](CCCNC(=N)N)NC(=O)[C@H](CCCNC(=N)N)NC(=O)[C@H](CCCCN)NC(=O)[C@H](CCCCN)NC1=O
3,0.1,C[C@@H]1NC(=O)[C@H](CCCCN)NC(=O)[C@H](CCCCN)NC(=O)[C@H](Cc2c[nH]c3ccccc23)NC(=O)[C@H](CCCNC(=N)N)NC(=O)[C@H](CCCNC(=N)N)NC(=O)[C@H](CCCCN)NC(=O)[C@H](CCCCN)NC(=O)[C@H](C)NC(=O)[C@H](Cc2c[nH]c3ccccc23)NC(=O)[C@H]([C@@H](C)O)NC(=O)[C@@H]2CCCN2C(=O)[C@H]2CCCN2C(=O)[C@H](CCCCN)NC1=O
4,0.01,CC(C)C[C@@H]1NC(=O)[C@H](Cc2c[nH]c3ccccc23)NC(=O)[C@H](C)NC(=O)[C@@H]2CCCN2C(=O)[C@H]2CCCN2C(=O)[C@H](CCCCN)NC(=O)[C@H](C)NC(=O)[C@H](CCCCN)NC(=O)[C@H](CCCCN)NC(=O)[C@H](Cc2c[nH]c3ccccc23)NC(=O)[C@H](CCCNC(=N)N)NC(=O)[C@H](CCCNC(=N)N)NC(=O)[C@H](CCCCN)NC(=O)[C@H](CCCCN)NC1=O
5,0.06,CC(C)C[C@@H]1NC(=O)[C@H](Cc2c[nH]c3ccccc23)NC(=O)[C@H]([C@@H](C)O)NC(=O)[C@@H]2CCCN2C(=O)[C@H]2CCCN2C(=O)[C@H](CCCCN)NC(=O)[C@H](C)NC(=O)[C@H](CCCCN)NC(=O)[C@H](C)NC(=O)[C@H](Cc2c[nH]c3ccccc23)NC(=O)[C@H](CCCNC(=N)N)NC(=O)[C@H](CCCNC(=N)N)NC(=O)[C@H](CCCCN)NC(=O)[C@H](CCCCN)NC1=O
6,0.03,CC(C)C[C@@H]1NC(=O)[C@H](Cc2c[nH]c3ccccc23)NC(=O)[C@H]([C@@H](C)O)NC(=O)[C@@H]2CCCN2C(=O)[C@H]2CCCN2C(=O)[C@H](CCCCN)NC(=O)[C@H](C)NC(=O)[C@H](CCCCN)NC(=O)[C@H](CCCCN)NC(=O)[C@H](Cc2c[nH]c3ccccc23)NC(=O)[C@H](CCCNC(=N)N)NC(=O)[C@H](C)NC(=O)[C@H](CCCCN)NC(=O)[C@H](CCCCN)NC1=O
7,0.06,CC(C)C[C@@H]1NC(=O)[C@H](Cc2c[nH]c3ccccc23)NC(=O)[C@H]([C@@H](C)O)NC(=O)[C@@H]2CCCN2C(=O)[C@H]2CCCN2C(=O)[C@H](CCCCN)NC(=O)[C@H](C)NC(=O)[C@H](C)NC(=O)[C@H](CCCCN)NC(=O)[C@H](Cc2c[nH]c3ccccc23)NC(=O)[C@H](CCCNC(=N)N)NC(=O)[C@H](CCCNC(=N)N)NC(=O)[C@H](CCCCN)NC(=O)[C@H](CCCCN)NC1=O
8,0.1,CC(C)C[C@@H]1NC(=O)[C@H](Cc2c[nH]c3ccccc23)NC(=O)[C@H]([C@@H](C)O)NC(=O)[C@@H]2CCCN2C(=O)[C@H]2CCCN2C(=O)[C@H](CCCCN)NC(=O)[C@H](C)NC(=O)[C@H](CCCCN)NC(=O)[C@H](CCCCN)NC(=O)[C@H](Cc2c[nH]c3ccccc23)NC(=O)[C@H](CCCNC(=N)N)NC(=O)[C@H](CCCNC(=N)N)NC(=O)[C@H](C)NC(=O)[C@H](CCCCN)NC1=O

# More lines, now with the values behind:
row,Compound,MIC [µg/mL]
1,CC(C)C[C@@H]1NC(=O)[C@H](Cc2ccccc2)NC(=O)[C@H]([C@@H](C)O)NC(=O)[C@@H]2CCCN2C(=O)[C@H]2CCCN2C(=O)[C@H](CCCCN)NC(=O)[C@H](C)NC(=O)[C@H](CCCCN)NC(=O)[C@H](CCCCN)NC(=O)[C@H](Cc2c[nH]c3ccccc23)NC(=O)[C@H](CCCNC(=N)N)NC(=O)[C@H](CCCNC(=N)N)NC(=O)[C@H](CCCCN)NC(=O)[C@H](CCCCN)NC1=O,0.06
2,CC(C)C[C@@H]1NC(=O)[C@H](Cc2c[nH]c3ccccc23)NC(=O)[C@H]([C@@H](C)O)NC(=O)[C@@H]2CCCN2C(=O)[C@H]2CCCN2C(=O)[C@H](CCCCN)NC(=O)[C@H](C)NC(=O)[C@H](CCCCN)NC(=O)[C@H](CCCCN)NC(=O)[C@H](Cc2ccc(O)cc2)NC(=O)[C@H](CCCNC(=N)N)NC(=O)[C@H](CCCNC(=N)N)NC(=O)[C@H](CCCCN)NC(=O)[C@H](CCCCN)NC1=O,0.3
3,CC(C)C[C@@H]1NC(=O)[C@H](Cc2c[nH]c3ccccc23)NC(=O)[C@H]([C@@H](C)O)NC(=O)[C@@H]2CCCN2C(=O)[C@H]2CCCN2C(=O)[C@H](CCCCN)NC(=O)[C@H](C)NC(=O)[C@H](CCCCN)NC(=O)[C@H](CCCCN)NC(=O)[C@H](Cc2ccccc2)NC(=O)[C@H](CCCNC(=N)N)NC(=O)[C@H](CCCNC(=N)N)NC(=O)[C@H](CCCCN)NC(=O)[C@H](CCCCN)NC1=O,0.1
4,CC(C)C[C@@H]1NC(=O)[C@H](Cc2c[nH]c3ccccc23)NC(=O)[C@H]([C@@H](C)O)NC(=O)[C@@H]2CCCN2C(=O)[C@H]2CCCN2C(=O)[C@H](C)NC(=O)[C@H](C)NC(=O)[C@H](CCCCN)NC(=O)[C@H](CCCCN)NC(=O)[C@H](Cc2c[nH]c3ccccc23)NC(=O)[C@H](CCCNC(=N)N)NC(=O)[C@H](CCCNC(=N)N)NC(=O)[C@H](CCCCN)NC(=O)[C@H](CCCCN)NC1=O,0.03
5,CC(C)C[C@@H]1NC(=O)[C@H](Cc2c[nH]c3ccccc23)NC(=O)[C@H]([C@@H](C)O)NC(=O)[C@H]2CCCN2C(=O)[C@@H]2CCCN2C(=O)[C@H](CCCCN)NC(=O)[C@H](C)NC(=O)[C@H](CCN)NC(=O)[C@H](CCCN)NC(=O)[C@H](Cc2c[nH]c3ccccc23)NC(=O)[C@H](CCCNC(=N)N)NC(=O)[C@@H](CCCCN)NC(=O)[C@H](CCCN)NC(=O)[C@H](CCN)NC1=O,≥ 32
6,CC(C)C[C@@H]1NC(=O)[C@H](CCCNC(=N)N)NC(=O)[C@H](CCCNC(=N)N)NC(=O)[C@H](CCCCN)NC(=O)[C@H](CCCCN)NC(=O)[C@H](CC(C)C)NC(=O)[C@H](Cc2c[nH]c3ccccc23)NC(=O)[C@H]([C@@H](C)O)NC(=O)[C@@H]2CCCN2C(=O)[C@H]2CCCN2C(=O)[C@H](CCCCN)NC(=O)[C@H](C)NC(=O)[C@H](CCCCN)NC(=O)[C@H](CCCCN)NC1=O,0.1
7,CC(C)C[C@@H]1NC(=O)[C@H](Cc2c[nH]c3ccccc23)NC(=O)[C@H]([C@@H](C)O)NC(=O)[C@@H]2CCCN2C(=O)[C@H]2CCCN2C(=O)[C@H](CCCCN)NC(=O)[C@H](C)NC(=O)[C@H](CCN)NC(=O)[C@H](CCCN)NC(=O)[C@H](Cc2c[nH]c3ccccc23)NC(=O)[C@H](CCCNC(=N)N)NC(=O)[C@@H](CCCCN)NC(=O)[C@H](CCCN)NC(=O)[C@H](CCN)NC1=O,0.01
8,CC(C)C[C@@H]1NC(=O)[C@H](Cc2c[nH]c3ccccc23)NC(=O)[C@H]([C@@H](C)O)NC(=O)[C@@H]2CCCN2C(=O)[C@H]2CCCN2C(=O)[C@H](CCCCN)NC(=O)[C@H](C)NC(=O)[C@H](CCCCN)NC(=O)[C@H](CCCCN)NC(=O)[C@H](Cc2c[nH]c3ccccc23)NC(=O)[C@H](C)NC(=O)[C@H](CCCNC(=N)N)NC(=O)[C@H](CCCCN)NC(=O)[C@H](CCCCN)NC1=O,0.06
9,CC(C)C[C@@H]1NC(=O)[C@H](Cc2ccc(O)cc2)NC(=O)[C@H]([C@@H](C)O)NC(=O)[C@@H]2CCCN2C(=O)[C@H]2CCCN2C(=O)[C@H](CCCCN)NC(=O)[C@H](C)NC(=O)[C@H](CCCCN)NC(=O)[C@H](CCCCN)NC(=O)[C@H](Cc2c[nH]c3ccccc23)NC(=O)[C@H](CCCNC(=N)N)NC(=O)[C@H](CCCNC(=N)N)NC(=O)[C@H](CCCCN)NC(=O)[C@H](CCCCN)NC1=O,0.06
10,CC(C)C[C@@H]1NC(=O)[C@H](C)NC(=O)[C@H]([C@@H](C)O)NC(=O)[C@@H]2CCCN2C(=O)[C@H]2CCCN2C(=O)[C@H](CCCCN)NC(=O)[C@H](C)NC(=O)[C@H](CCCCN)NC(=O)[C@H](CCCCN)NC(=O)[C@H](Cc2c[nH]c3ccccc23)NC(=O)[C@H](CCCNC(=N)N)NC(=O)[C@H](CCCNC(=N)N)NC(=O)[C@H](CCCCN)NC(=O)[C@H](CCCCN)NC1=O,> 16
11,CC(C)C[C@@H]1NC(=O)[C@H](CC(C)C)NC(=O)[C@H]([C@@H](C)O)NC(=O)[C@@H]2CCCN2C(=O)[C@H]2CCCN2C(=O)[C@H](CCCCN)NC(=O)[C@H](C)NC(=O)[C@H](CCCCN)NC(=O)[C@H](CCCCN)NC(=O)[C@H](Cc2c[nH]c3ccccc23)NC(=O)[C@H](CCCNC(=N)N)NC(=O)[C@H](CCCNC(=N)N)NC(=O)[C@H](CCCCN)NC(=O)[C@H](CCCCN)NC1=O,1
12,CC(C)C[C@@H]1NC(=O)[C@H](Cc2c[nH]c3ccccc23)NC(=O)[C@H]([C@@H](C)O)NC(=O)[C@@H]2CCCN2C(=O)[C@H]2CCCN2C(=O)[C@H](CCCCN)NC(=O)[C@H](C)NC(=O)[C@H](CCCCN)NC(=O)[C@H](CCCCN)NC(=O)[C@H](C)NC(=O)[C@H](CCCNC(=N)N)NC(=O)[C@H](CCCNC(=N)N)NC(=O)[C@H](CCCCN)NC(=O)[C@H](CCCCN)NC1=O,> 16
